Assay results published in US20250235451A1, “Methods of Delaying Pain Progression And Treating Prostate Cancer” (ASTRAZENECA AB, priority 2020, published 2025).

How the values were obtained:
[1] = system: metastatic castration-resistant prostate cancer (mCRPC) with a qualifying alteration in any of 15 prespecified HRR genes; assay: Phase III trial NCT02987543, efficacy in the overall population (Cohorts A + B); assay type: in vivo, human
Excerpt: (§1) Patient population. In clinical trial NCT02987543, eligible patients were male, aged ≥18 years with histological diagnosis of prostate cancer, confirmed mCRPC, whose disease had progressed after one or more treatments with new hormonal agent (NHA) (e.g., enzalutamide or abiraterone, administered for metastatic or non-metastatic castration-resistant prostate cancer, as well as metastatic hormone-sensitive prostate cancer). Prior taxane chemotherapy was allowed. Men without prior surgical castration were required to continue luteinizing-hormone-releasing hormone analog therapy. Patients had adequate organ and bone marrow function. Full eligibility criteria are provided in the trial protocol. All patients provided written informed consent. An investigational clinical trial assay, based on the FoundationOne® CDx next-generation sequencing test was used to prospectively identify patients with qualifying deleterious or suspected deleterious alterations in one or more of the 15 prespecified genes selected for their direct or indirect role in HRR: BRCA1, BRCA2, ATM, BRIP1, BARD1, CDK12, CHEK1, CHEK2, FANCL, PALB2, PPP2R2A, RAD51B, RAD51C, RAD51D, and RAD54L. Tumor testing was conducted centrally using archival or recent biopsy tissue from primary or metastatic disease. Presence of deleterious or suspected deleterious alteration by the central tumor test was required for eligibility, irrespective of the zygosity of the alteration.
(§2) Study design. This was a prospective, randomized, open-label, Phase III study. Eligible patients were included in one of two cohorts depending on their qualifying gene alteration. Cohort A included patients with BRCA1, BRCA2 and/or ATM alterations, regardless of co-occurring qualifying alterations in any of the other genes. Cohort B included patients with alterations in any of the other 12 genes. The overall population comprised patients from Cohort A and Cohort B (i.e., patients with a qualifying alteration in any of the 15 prespecified genes).
(§3) Randomization was stratified by previous taxane use (yes/no) and measurable disease (yes/no). Treatment was continued until objective radiographic disease progression assessed by a third-party vendor blinded independent central review (BICR), or unacceptable toxicity. Patients randomized to the control arm were eligible to cross over to olaparib treatment upon BICR-confirmed radiographic progression.
(§4) The primary endpoint was rPFS assessed by BICR in patients with BRCA1, BRCA2, and/or ATM alterations (Cohort A). rPFS was defined as the time from randomization until soft-tissue disease progression (by Response Evaluation Criteria in Solid Tumors (RECIST) v1.1), bone lesion progression (by Prostate Cancer Working Group 3 (PCWG3) criteria) or death. A prespecified sensitivity analysis of rPFS based on investigator assessment was performed. rPFS by BICR in the overall population was also a secondary endpoint.
(§5) Additional secondary endpoints evaluated included confirmed radiographic objective response rate (ORR), time to pain progression (TTPP), overall survival (OS), prostate-specific antigen (PSA) response (PSA50 response) and circulating tumor cell (CTC) conversion rate. ORR was assessed among evaluable patients who had measurable disease at baseline as assessed by BICR using RECIST v1.1 (responses were also assessed by BICR using RECIST v1.1, were confirmed and required absence of progression on bone scan assessed by PCWG3). OS is defined as time from randomization to time point at which death due to any cause occurs. A pre-specified sensitivity analysis for the crossover effect on OS was performed. Safety was assessed in the overall population through reporting of Common Terminology Criteria for Adverse Events (CTCAE) v4.0 and collection of clinical chemistry and hematology parameters.
(§6) Time to pain progression (TTPP) was based on Brief Pain Inventory-Short Form item 3 ('worst pain in 24 hours) and initiation of opiate analgesic use (Analgesic Quantification Algorithm score). […]

[2] = Phase III trial NCT02987543, safety (adverse events, CTCAE v4.0) in the overall population; assay type: in vivo
Protocol: as §5
Blood samples for PSA assessments were collected at baseline, every 4 weeks until week 24, then every 8 weeks until study treatment discontinuation, and for CTC analyses were collected at baseline and then every 8 weeks until study treatment discontinuation. Overall survival was assessed every 12 weeks after progression. Adverse events (AEs) were graded according to the National Cancer Institute Common Terminology Criteria for Adverse Events version 4.0. […]
Statistical analysis. Efficacy data were analyzed on an intent-to-treat basis and safety data were reported for all patients who received ≥1 dose of trial treatment. […] For time-to-event endpoints, rPFS, time to pain progression, and OS, P-values were calculated using log-rank tests, stratified by stratification factors. […] The Kaplan-Meier method was used to calculate medians for each trial arm. Logistic regression models adjusted for stratification factors were used to analyze objective responses. A multiple-testing procedure was used to control for the study-wide type 1 error rate. […] For OS, the two-sided 5% level of alpha was split at the interim (0.01) and final (0.047) analyses using an O′Brien-Fleming spending function.

[3] = system: metastatic castration-resistant prostate cancer (mCRPC) with BRCA1, BRCA2, and/or ATM alterations; assay: Phase III trial NCT02987543, efficacy in Cohort A (alterations in BRCA1, BRCA2 and/or ATM); assay type: in vivo, human
Excerpt: as §1, §2, §3, §4, §5, §6

[4] = overall population, evaluable patients
[5] = overall population, olaparib vs control

## O=C(c1cc(Cc2n[nH]c(=O)c3ccccc23)ccc1F)N1CCN(C(=O)C2CC2)CC1 [Olaparib, 4-[(3-{[4-(cyclopropane-carbonyl)piperazine-1-yl]carbonyl}-4-fluorophenyl)methyl]-2H-phthalazin-1-one]
[1]; Cohorts A + B (overall population)
  Median TTPP (months), sensitivity analysis including any death as an event: 11.89 months
[1]; overall population
  TTPP Pain severity, Events (%): 9.4%
  TTPP Pain severity, Events n: 24 n
  TTPP Worst pain, Events (%): 12.5%
  TTPP Worst pain, Events n: 32 n
  Time to Opiate use, Events (%): 37.1%
  Time to Opiate use, Events n: 65 n
  Time to Opiate use, Median (m): 18.0 m
  median rPFS by BICR: 5.82 months
[1]; overall population, 6 months
  TTPP Pain severity, 6-month rate (%): 88.7%
  TTPP Worst pain, 6-month rate (%) (free of pain progression): 85.2%
  Time to Opiate use, 6-month rate (%): 25%
[1]; overall population, 12 months
  TTPP Pain severity, 12-month rate (%): 81.0%
  TTPP Worst pain, 12-month rate (%): 76.3%
  Time to Opiate use, 12-month rate (%): 41%
[1]; overall population, data maturity 41%
  Median OS at interim analysis: 17.51 months
[1]; [4]
  CTC conversion: 26.8%
  PSA50 response: 30.0%
  confirmed objective response rate: 21.7%
[1]; [5]
  TTPP Pain severity, HR: 0.71
  TTPP Worst pain, HR: 0.64
  Time to Opiate use, HR: 0.67
[1]; overall subject population
  median progression free survival greater than for subjects receiving the standard of care treatment: at least 2 months
[2]
  Anemia, All grades, (%): (46.5) %
  Anemia, Grade ≥3, (%): (21.5) %
  Any adverse event, All grades, (%): (95.3) %
  Any adverse event, Grade ≥3, (%): (50.8) %
  Arthralgia, All grades, (%): (9.4) %
  Arthralgia, Grade ≥3, (%): (0.4) %
  Back pain, All grades, (%): (13.7) %
  Back pain, Grade ≥3, (%): (0.8) %
  Cough, All grades, (%): (10.9) %
  Decreased appetite, All grades, (%): (30.1) %
  Decreased appetite, Grade ≥3, (%): (1.2) %
  Diarrhea, All grades, (%): (21.1) %
  Diarrhea, Grade ≥3, (%): (0.8) %
  Discontinuation of intervention due to adverse event, (%): (18.0) %
  Dose reduction due to adverse event, (%): (22.3) %
  Dyspnea, All grades, (%): (10.2) %
  Dyspnea, Grade ≥3, (%): (2.3) %
  Fatal adverse event, (%): (3.9) %
  Fatigue & asthenia, All grades, (%): (41.0) %
  Fatigue & asthenia, Grade ≥3, (%): (2.7) %
  Interruption of intervention due to adverse event, (%): (44.9) %
  Nausea, All grades, (%): (41.4) %
  Nausea, Grade ≥3, (%): (1.2) %
  Peripheral edema, All grades, (%): (12.5) %
  Urinary tract infection, All grades, (%): (7.0) %
  Urinary tract infection, Grade ≥3, (%): (1.6) %
  Vomiting, All grades, (%): (18.4) %
  Vomiting, Grade ≥3, (%): (2.3) %
  patients reporting new primary malignancies: 1 n
  pulmonary embolism events, %: 4.3%
[2]; none were fatal
  pulmonary embolism events, number: 11
[3]
  Median TTPP (months), sensitivity analysis including any death as an event: 17.22 months
[3]; data maturity 38%
  median OS (interim analysis): 18.50 months
[3]; evaluable patients
  CTC conversion: 29.9%
  PSA50 response: 43.1%
  confirmed objective response rate: 33.3%
[3]; olaparib vs control
  reduction in risk for disease progression or death: 66%
[3]; primary endpoint
  median rPFS (radiographic progression-free survival) by BICR: 7.39 months
